Laboratory results: US10335380B2, “Compounds suitable for the treatment of myeloproliferative neoplasms as well as methods for the diagnosis/prognosis of myeloproliferative neoplasms” (CNIC Fundacion Centro Nacional De investigaciones …, priority 2013, dated 2019)

Assays:
[1] = tested on: mice transplanted with MPN BM cells (JAK2-V617F); test: In vivo pharmacological treatments of mice transplanted with MPN (Mx1-cre;JAK2-V617F) BM cells; set-up: species or system mouse
Text: In Mx1-cre; JAK2-V617F double-transgenic mice, expression of the human JAK2-V617F mutation is driven by the endogenous Jak2 promoter and can be conditionally expressed in haematopoietic cells upon Myxovirus resistance-1 (Mx1)-driven Cre recombinase activation by polyinosine-polycytosine (plpC). PlpC-induced transgenic mice and wild-type mice transplanted with BM cells from these mice develop progressive symptoms of PV19,20.
Age-matched, female wild-type C57BL/6J or Nes-gfp mice were used as recipients in bone marrow (BM) transplantation assays and for in vivo pharmacological treatments. […] Vehicle (saline solution) daily injections were performed in the same way. Unless indicated, treatment was initiated 4 weeks posttransplant, when animals evidenced peripheral blood signs of MPN. Mice were randomly distributed prior to treatment initiation, and disease development was monitored over time in peripheral blood samples, using an automated blood counter. […] The neuroprotective drug 4-methylcatechol (10 μg kg-1, i.p.) was injected once daily. The JAK inhibitor INCB018424 (S-Ruxilitinib, Abmole Bioscience) was administered by oral gavage (30 mg kg-1, twice per day separated 10-12 hours) in 0.5% hydroxypropylmethylcellulose (Sigma) after solubilisation in DMSO. The IL-1 receptor antagonist (Kineret, Sobi, Stockholm, Sweden) was administered by subcutaneous osmotic pumps (Alzet) infusing a continuous dosing of 40 mg kg-1 per day. Mice were sacrificed at different time points and subjected to complete necropsy; BM and spleen were analysed by histology and flow cytometry; femora and skull were used for immunostainings, and haematopoietic and stromal cells were additionally used for functional assays ex vivo.
BM cell extraction, flow cytometry and fluorescence-activated cell sorting For haematopoietic cell recovery, bones were crushed in a mortar, filtered through a 40-μm mesh to obtain single cell suspensions, and depleted of red blood cells by lysis in 0.15 M NH4Cl for 10 min at 4° C. Spleen samples were homogenised and filtered prior to lysis; blood samples were directly lysed. Cells (1-2×10^6 cells per sample) were incubated with the appropriate dilution (2-5 μg ml-1) of fluorescent antibody conjugates and 4′,6-diamidino-2-phenylindole (DAPI) for dead cell exclusion, and analysed on LSRFortessa flow cytometer (BD Biosciences, Franklin Lakes, N.J.) equipped with FACSDiva Software (BD Biosciences). […] Biotinylated antibodies were detected with fluorochrome-conjugated streptavidin (BD Biosciences). Phenotypic populations of HSC were defined as long-term haematopoietic stem cells (HSCs) (lin− Sca1+c-kit+ (LSK) CD34− Flt3−), short-term HSCs (LSK CD34+ Flt3−) and multipotent progenitors (MPP) (LSK CD34+ Flt3+).
Cells were filtered through a 40-μm mesh and erythrocytes were lysed as previously described. The resulting bone marrow-enriched cell suspensions were pelleted, washed and resuspended in PBS buffer containing 2% foetal calf serum (FCS) for further analyses. […] BM stromal CD45− CD31− Ter119− cells were further purified according to GFP fluorescence using a FACS Aria cell sorter (BD Bioscience). For the determination of apoptotic cells, samples were washed with PBS after surface antibody staining and subsequently stained with Annexin V-Pacific Blue and SYTOX AADvanced (Invitrogen, Life Technologies, Paisley, UK). For functional assays, cells were enriched by immunomagnetic depletion using biotinylated CD45 and Ter119. For immunophenotypic characterisation, total BM samples were studied by flow cytometry using the following additional antibodies: CD63 (NVG-2), CD105 (MJ7/18), CD140a (APA5), Vcam, CD51 (RMV-7), all from Biolegend; and CD90.2 from BD Biosciences.
Immunofluorescence staining of cryostat sections was performed. For whole mount staining of the calvaria, all incubation times were extended. The antibodies used were TH (Rabbit pAb, Millipore) and GFAP (Rabbit pAb, Dako).

[2] = tested on: CD45+ haematopoietic cells from BM of Nes-gfp;Mx1-cre;JAK2-V617F mice and control littermates; test: Colony-forming units in culture (CFU-C) with drug added in vitro; assay type: cell-based, mouse; details: scored after one week in culture
Description: Colony-forming units in culture (CFU-C) assay was performed. […] Colonies of more than 50 cells were scored after 7 days of incubation at 37° C., 5% CO2, 20% O2 in a water-jacketed incubator. For CFU-F assays, BM CD45− Ter119− cells were plated into 6-well dishes and cultured in maintenance medium (α-MEM, 15% FCS with antibiotics). After 10-12 days in culture, adherent cells were fixed with 100% methanol and stained with Giemsa stain (Sigma) to reveal fibroblastic clusters. Colonies with more than 50 cells were scored as CFU-F.

[3] = target: murine receptor (β3-adrenergic) (Mus musculus, UniProt P25962); details: cited from earlier work
[4] = cited from earlier work
BM-derived Schwann cells = test: Co-culture of BM-derived Schwann cells with JAK2V617F+ BM LSK cells, apoptosis by TUNEL; assay type: cell-based, mouse; details: IL1ra 200 ng ml-1, 24 h co-culture
Description: For co-culture of BM-derived Schwann cells and MSCs with BM LSK cells from control and mutant mice, neonatal BM CD45− CD31− Ter119− Nes-GFP+ Pdgfrα−/+ cells containing Schwann cell precursors and MSCs, respectively (Isern J et al., submitted), were sorted and cultured under Schwann cell differentiation conditions, as previously described 34, or mesenchymal culture conditions, in MEMα supplemented with 10 ng ml-1 PDGFAB, 15% FBS. Both were co-cultured for 24 h with primary BM LSK cells isolated by FACS from control or mutant mice. Schwann cells derived from sorted GFP+ Pdgfrα− BM precursors were additionally incubated with IL1ra (200 ng ml-1) for the co-culture period. After 24 h of co-culture, haematopoietic cells were washed away and the remaining adherent Schwann cells were fixed and analysed for apoptosis by TUNEL.

[5] = IL1ra 40 mg kg-1 per day, subcutaneous osmotic pumps, 18 weeks

Chain of murine receptor (β3-adrenergic) (P25962 whole entry): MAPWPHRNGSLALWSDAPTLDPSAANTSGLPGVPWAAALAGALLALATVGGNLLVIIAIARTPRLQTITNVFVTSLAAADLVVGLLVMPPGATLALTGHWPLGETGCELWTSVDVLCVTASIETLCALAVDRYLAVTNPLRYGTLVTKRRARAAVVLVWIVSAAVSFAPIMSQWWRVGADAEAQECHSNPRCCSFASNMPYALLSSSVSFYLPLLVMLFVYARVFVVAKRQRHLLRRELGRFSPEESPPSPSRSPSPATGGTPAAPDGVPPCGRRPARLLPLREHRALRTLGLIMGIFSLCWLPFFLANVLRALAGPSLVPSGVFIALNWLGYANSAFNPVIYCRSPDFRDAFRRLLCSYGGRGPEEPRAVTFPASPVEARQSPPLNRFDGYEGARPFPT

Compound: Cc1ccc(O)c(O)c1 [4-methylcatechol]
- incipient MPN signs (haematological parameters) ([1]; 8 weeks after transplantation, treatment for the last 4 weeks): improved
- mutant haematopoietic progenitor expansion ([1]; early treatment, 4 weeks, BRL37344 2 mg kg-1 twice a day, 4-methylcatechol 10 μg kg-1 once daily): prevented
- BM Schwann cells (Gfap immunostaining) ([1]; symptomatic MPN mice, 4-methylcatechol 10 μg kg-1 i.p. once daily over a month): preserved
- MPN-associated neutrophilia ([1]; symptomatic MPN mice, treatment started 4 weeks after transplantation, BRL37344 2 mg kg-1 i.p. twice a day, 4-methylcatechol 10 μg kg-1 i.p. once daily): prevented
- growth of cultured haematopoietic progenitors (CFU-C) [2]: neither 4-methylcatechol nor BRL37344 affected

Compound: Nc1nc(CC(=O)Nc2ccc(CCNC[C@H](O)c3ccccc3)cc2)cs1 [Mirabegron]
- affinity for the murine receptor [3]: relatively low
- solubility [4]: poor
- MPN progression ([1]; BRL37344 or Mirabegron 2 mg kg-1 i.p. twice a day): delays
- several MPN markers (blood counts) ([1]; Mirabegron 2 mg kg-1 i.p. twice a day, last two weeks, 8 weeks after transplantation, to lower extent than BRL37344): improved

Compound: interleukin-1 receptor antagonist: IL-1 receptor antagonist (Kineret, Sobi, Stockholm, Sweden)
- 3-fold higher apoptotic rate of Schwann cells co-cultured with JAK2V617F+ haematopoietic progenitors (BM-derived Schwann cells): blocked
- BM MSC frequency [1, 5]: increased
- caspase-1 mRNA expression in haematopoietic progenitors [1, 5]: reduced
- platelet counts ([1]; IL1ra 40 mg kg-1 per day, subcutaneous osmotic pumps, 18 weeks, starting 2 weeks after transplant): reduced
